Patent US5053431A, “Derivatives of chrysophanol as topoisomerase II inhibitors” (Sloan-Kettering Institute For Cancer Research, priority 1990, dated 1991)
Converted amounts (≈) assume the structure as drawn. Where two headings read alike, the source gives them in different places.

Columns and labels:
[1] = test system: cancer; details: literature; cited from earlier work
[2] = test system: peroxidases; details: literature; cited from earlier work
[3] = test system: proteins, polyadenylate, RNA, DNA; details: literature; cited from earlier work
[4] = test system: DNA; details: literature; cited from earlier work
[5] = Solubility in aqueous solutions; format: physicochemical
[6] = test system: human leukemia HL-60 cells; test: HL-60 cell growth inhibition (72 h); format: cell-based; details: HL-60, 72 h, read-out: ID50, M [HL-60 cell growth (72 h)] (A)
Protocol: For cell growth inhibition studies, HL-60 cells […]) were grown in RPMI 1640 media at 37° C. in humidified 5% CO2 for 72 h. Viable cells were counted with the trypan blue exclusion method. The fractional inhibitions at four or five concentrations of compounds (in 0.2% DMSO) were analyzed with a median-effect plot (Chou, T.-C., et al., Adv. Enzyme Regul. 22:27 (1984)) by using a computer program. (Chou, J.; Chou, T.-C. Dose-Effect Analyses with Microcomputer. Quantitation of ID50, LD50, Synergism, Antagonism, Low-dose Risk, Receptor-Binding and Enzyme Kinetics; IBM-PC Series, Elsevier-Biosoft, Elsevier Scientific: Cambridge, U.K., (1986)). The median-effect concentration (ID50) was automatically determined for the x intercept of the median-effect plot. Cell growth in the absence of a compound and in the presence of DMSO was used as a control. DMSO (0.2%) alone inhibited cell growth 3.8±1.2% during the 72-h incubation period.

[7] = test system: [^3 H]TdR incorporation into DNA in HL-60 cells; test: Inhibition of [3H]TdR incorporation into DNA in HL-60 cells (initial 30 min); format: cell-based, human; details: for IC50: HL-60, initial 30 min exposure, read-out: ID50, M (HL-60 TdR into DNA (B)); for B/A: ratio of ID50 for TdR incorporation (B) to ID50 for cell growth (A), HL-60
Protocol: For precursor incorporation studies, each compound at four to six concentrations (0.2% DMSO) was preincubated with HL-60 cells (2.5×10^6 /Ml) for 15 min prior to the addition of [^3 H-methyl]TdR (1 μCi, 0.15 nmol/mL) and was incubated for 30 min. […] The incorporation of radioactivity in DNA in the absence of an analogue in the presence of DMSO was used as a control.

[8] = test system: mouse leukemia L1210 cells; test: Inhibition of L1210 cell growth; format: cell-based
Protocol: Preliminary biological data for inhibiting cell growth of murine L1210 leukemic cells and human acute promyelocytic leukemia cells (HL-60) during 72 h of exposure to the compounds are given in Table IV. The potencies for inhibiting [^3 H]TdR incorporation into DNA in HL-60 cells during the initial 30-min period are also given in Table IV. It is interesting to note that 1,8-di-O-methyl derivatives are uniformly devoid of activity against L1210 leukemic cells. […] The B/A ratios allow an indirect estimation of whether or not cytotoxicities exerted by these analogues are primarily due to initial inhibition of DNA synthesis. […] Whether these analogues, like m-AMSA, ellipticine, or anthracyclines, act by inhibiting DNA topoisomerase II remains to be explored. […] Our preliminary experiments indicate that the compounds arrest cells in the S and/or G2 phases of the cell cycle (unpublished results).

[9] = Stability of compound; format: physicochemical
[10] = test system: Topo II; test: Topo II cleavable complex formation; format: biochemical, human (HL-60); details: 3'-labeled DNA and NE of HL-60
Protocol: (§1) This experiment concerns Topoisomerase II (Topo II)-mediated DNA cleavage activity induced by chrysophanol derivatives. 3-(bis[2-chloroethyl]amino)methyl-1,8-dihydroxy-9,10-anthraquinone (SK-31662) and 3-(2-hydroxyethylamino)methyl-1,8-dihydroxy-9,10-anthraquinone (SK-31694) have antileukemic activity with IC>es of 0.14 and 0.86 uM, respectively. SK-31662 and SK-31694 inhibit kDNA decatenation at 48 and 38 uM, respectively.

[11] = test system: leukemia L1210/Cisplatin; test: Activity against Cisplatin-resistant leukemia L1210 in mice; format: in vivo, mouse
Protocol: At the dosage of 100 mg/kg/day×5 (ip), mice inoculated with Cisplatin resistant leukemia L1210/Cisplatin are cured.

[12] = test system: Topo II; test: Inhibition of kDNA decatenation; format: biochemical
[13] = test system: Topo II; test: Heat reversal of protein-linked DNA complex; format: biochemical, human (HL-60); details: 65 degrees C
Protocol: as §1

[14] = test system: Topo II; test: Mapping of DNA-Topo II cleavage sites (Hind III-digested 3'-labeled DNA, HL-60 nuclear extracts); format: biochemical, human (HL-60); details: 10 uM
Protocol: as §1

[15] = test system: leukemic cells; test: Antileukemic activity (Experiment 3); format: cell-based; details: read-out: antileukemic activity IC>es
[16] = test system: DNA (native and thermally denatured); test: Spectrophotometric study of DNA interaction; format: binding, calf thymus; details: Me2 SO to 1:1 v/v
Protocol: Some representative compounds were studied for their ability to interact with nucleic acids in solution by comparison of the electronic spectrum of drug alone with that of the drug in the presence of an excess of nucleic acid. All drugs studied have an absorption band in the visible region, separate from the absorption band of the nucleic acids, and therefore any changes in band intensity and position were indicative of drug chromophore-DNA interaction.
Absorption spectra were measured with an IBM 9410 UV-visible spectrometer interfaced to an HP 9826 computer. Small volumes of the stock drug solutions (2 mg/mL in Me2 SO) were added to 2 mL of buffer (0.01 or 0.1 M NaCl, 5 mM Hepes, pH 7) to obtain a final drug concentration of 5-15 μM, or to the solution of native or thermally denatured DNA (0.2 and 0.1 mM, respectively) in the buffer. After incubation at room temperature for 10 min, the spectra were recorded in the 300-600 nm range (increment 1 nm) and corrected by subtracting the spectrum of the blank which was measured before addition of the drug.

Cc1c2cc[n+](C)cc2c(C)c2c1[nH]c1ccc(O)cc12 [9-OH-NME, 2-N-Methyl-9-hydroxyellipticinium]
anticancer activity [1]: one of the most active drugs among the ellipticine analogues | oxidation by peroxidases [2]: easily oxidized by peroxidases

Cc1c2c(c(C)c3c[n+](C)ccc13)C1=CC(=O)C=CC1=N2 [9-oxo-NME, 9-oxo-2-methylellipticinium]
alkylation of macromolecules [3]: easily alkylated by 9-oxo-NME

COc1c(O)c2c(c3cc(C(=O)N4CCc5c4c(O)c(OC)c4[nH]c(C(=O)N6CC7CC78C6=CC(=O)c6[nH]cc(C)c68)cc54)[nH]c13)CCN2C(N)=O (stereo not shown) [CC1065]
DNA binding / alkylation [4]: binds to the minor groove of DNA by nonintercalative means and then slowly alkylates the amino group of adenine

Cc1cc(O)c2c(c1)C(=O)c1cccc(O)c1C2=O [IIa, chrysophanol]
solubility in aqueous solutions [5]: low solubility in aqueous solutions

Cc1cc(O)c2c(c1)C(=O)c1cc(O)cc(O)c1C2=O [IIb, emodin]
solubility in aqueous solutions [5]: low solubility in aqueous solutions

COc1cccc2c1C(=O)c1c(OC)cc(CNCCCl)cc1C2=O [IXa-7, 3-[N-(2-chloroethyl)amino]methyl-1,8-dimethoxy-9,10-anthraquinone]
IC50 ([6]; Homo sapiens): 86 µM | IC50 ([7]; Homo sapiens, 0.5 h): 19 µM | B/A [7]: 0.22 | IC50 ([8]; Mus musculus, L1210, 72 h, read-out: ID50, M (L1210 cell growth)): 26 µM | stability [9]: unstable

O=C1c2cccc(O)c2C(=O)c2c(O)cc(CN(CCCl)CCCl)cc21 [XIa-3, 3-(bis[2-chloroethyl]amino)methyl-1,8-dihydroxy-9,10-anthraquinone]
IC50 ([6]; 0.2% DMSO): 0.18 µM | formation of Topo II cleavable complex [10]: stimulate the formation of Topo II cleavable complex | IC50 [7]: 69 µM | B/A [7]: 383 | cure of mice inoculated with Cisplatin resistant leukemia L1210/Cisplatin ([11]; 100 mg/kg/day×5 (ip)): cured | potency against mouse leukemia L1210 made resistant to Cisplatin ([11]; mouse, in vivo): extremely potent | ID50 ([8]; Table I): 0.058 µg/mL (≈ 0.147 µM) | IC50 ([8]; Table I, read-out: ID50 (the source's name)): 0.13 µM | concentration that inhibits kDNA decatenation [12]: 48 µM | reversal of protein-linked DNA by heat [13]: cannot be reversed up to 15 min | protein-linked DNA breaks, cleavage site pattern [14]: induce protein-linked DNA breaks with a cleavage site pattern similar to m-AMSA | IC50 [15]: 0.14 µM

O=C1c2cccc(O)c2C(=O)c2c(O)cc(CNCCO)cc21 [XIa-6, 3-(2-hydroxyethylamino)methyl-1,8-dihydroxy-9,10-anthraquinone]
IC50 ([6]; Homo sapiens, 0.2% DMSO): 0.86 µM | formation of Topo II cleavable complex [10]: stimulate the formation of Topo II cleavable complex | IC50 ([7]; Homo sapiens, 0.5 h): 15 µM | B/A [7]: 17.4 | IC50 ([8]; Mus musculus, L1210, Table I, read-out: ID50 (the source's name)): 0.16 µM | IC50 ([8]; Mus musculus, L1210, Table I, read-out: ID50 (μg/mL)): 0.066 µg/mL | concentration that inhibits kDNA decatenation [12]: 38 µM | reversal of protein-linked DNA by heat [13]: reduced during 0.5 min exposure to 65 °C | protein-linked DNA breaks, cleavage site pattern [14]: induce protein-linked DNA breaks with a cleavage site pattern similar to m-AMSA | IC50 [15]: 0.86 µM

O=C1c2cccc(O)c2C(=O)c2c(O)cc(CNCCCl)cc21 [XIa-7, 3-[N-(2-chloroethyl)amino]methyl-1,8-dihydroxy-9,10-anthraquinone]
IC50 ([6]; Homo sapiens): 7.5 µM | IC50 ([7]; Homo sapiens, 0.5 h): 39 µM | B/A [7]: 5.2 | reversal of DNA induced changes in absorption spectra by Me2SO [16]: could be reversed by addition of Me2 SO | IC50 ([8]; Mus musculus, L1210, read-out: ID50 (μM)): 7.11 µM | IC50 ([8]; Mus musculus, L1210, read-out: ID50 (μg/mL)): 2.37 µg/mL | stability [9]: unstable
